Results: ChEMBL document CHEMBL4017442, “Recent updates of carbapenem antibiotics” (Eur J Med Chem, 2017)
Blank lines part the entries; values can stand above or below the molecule they belong to.

Assays:
Blood [1] = experiment: Drug uptake in end-stage renal disease patient blood at 0.75 g, iv; format: ADME, tissue-based; conditions: human
Blood [2] = experiment: Drug uptake in end-stage renal disease patient blood at 0.5 g, iv; format: ADME, tissue-based; conditions: human
[3] = Half life in iv dosed human; format: ADME, organism-based; conditions: in vivo
[4] = Ratio of drug level in serum to cerebrospinal fluid in human; format: ADME
[5] = Clearance in end-stage renal disease patient undergoing drug hydrolysis; format: ADME; conditions: human
[6] = Clearance in end-stage renal disease patient without drug hydrolysis; format: ADME; conditions: human
Staphylococcus aureus [7] = experiment: Potentiation of imipenem-induced antibacterial activity against methicillin-reisitant Staphylococcus aureus assessed as fold reduction in imipenem MIC at 10 ug/ml measured after 20 hrs by liquid microdilution method relative to imipenem alone; format: functional
Mus musculus = experiment: Anti-inflammatory activity in mouse model of CLP-induced sepsis assessed as survival time at 25 ug/g, sc in presence of atorvastatin (reference value: 20 +/- 1.66 hrs); format: functional
Staphylococcus aureus [8] = experiment: Potentiation of imipenem-induced antibacterial activity against methicillin-reisitant Staphylococcus aureus assessed as imipenem MIC (reference value: 16 ug/ml); format: functional
[9] = Elimination half life in human at 1 g, iv administered as single dose; format: ADME, organism-based; conditions: in vivo, read-out: beta t1/2 (converted)
Plasma = experiment: Protein binding in human plasma at < 50 ug/ml; format: ADME, cell-free

SMILES: O=C(O)CCNC(=O)c1ccccc1 [BETAMIPRON]
Drug uptake (Blood [1]): 39 mg/L
Drug uptake (Blood [2]): 24 mg/L

SMILES: C=C/C(C)=C/C[C@@H]1[C@@]2(C)CCC[C@](C)(CO)[C@@H]2C[C@H](O)[C@]1(O)CSC[C@H](NC(C)=O)C(=O)O
fold change (FC) (Staphylococcus aureus [7]): 123

SMILES: C[C@@H](O)[C@H]1C(=O)N2C(C(=O)O)=C(SCCNC=N)C[C@H]12 [IMIPENEM ANHYDROUS]
half-life [3]: 1 h
Survival (Mus musculus): 56 h

SMILES: C=C/C(C)=C/C[C@@H]1[C@@]2(C)CCCC(C)(C)[C@@H]2C[C@H](O)[C@]1(O)CSC[C@H](NC(C)=O)C(=O)OC
fold change (FC) (Staphylococcus aureus [7]): 533

Next, values leading:

half-life [3]: 1.2 h
Ratio [4]: 8
clearance [5]: 159 mL/min
clearance [6]: 48.7 mL/min
Drug uptake (Blood [1]): 61 mg/L
Drug uptake (Blood [2]): 37 mg/L
SMILES: CC(=N)N1CC[C@H](SC2=C(C(=O)O)N3C(=O)[C@H]([C@@H](C)O)[C@H]3C2)C1 [PANIPENEM]

MIC (Staphylococcus aureus [8]): 0.05 µg/mL
SMILES: C=C/C(C)=C/C[C@@H]1[C@@]2(C)CCCC(C)(C)[C@@H]2C[C@H](O)[C@]1(O)CSC[C@H](NC(C)=O)C(=O)O

half-life [9]: 4 h
PPB (Plasma): 94%
SMILES: C[C@@H](O)[C@H]1C(=O)N2C(C(=O)O)=C(S[C@@H]3CN[C@H](C(=O)Nc4cccc(C(=O)O)c4)C3)[C@H](C)[C@H]12 [ERTAPENEM]
